Measurements taken from PMC7756341, “Liposomal FRET Assay Identifies Potent Drug‐Like Inhibitors of the Ceramide Transport Protein (CERT)” (Chemistry (Weinheim an Der Bergstrasse, Germany), 2020).
Where “and” joins values, the source holds several entries; their conditions need not be identical. Equal values may be shown once. Read-outs that look alike come from different tables or passages of the source.

Biological target: T1, START domain of human CERT (Homo sapiens, UniProt Q9Y5P4)
T1 construct: The START domain of hCERT was expressed has a His6-SUMO fusion protein [2]; His6-SUMO (N, cleaved yes); made in house; host or cells: E. coli BL21(DE3), pQE-based plasmid
T1 sequence (Q9Y5P4 347-598 isoform Q9Y5P4-2 limits assumed): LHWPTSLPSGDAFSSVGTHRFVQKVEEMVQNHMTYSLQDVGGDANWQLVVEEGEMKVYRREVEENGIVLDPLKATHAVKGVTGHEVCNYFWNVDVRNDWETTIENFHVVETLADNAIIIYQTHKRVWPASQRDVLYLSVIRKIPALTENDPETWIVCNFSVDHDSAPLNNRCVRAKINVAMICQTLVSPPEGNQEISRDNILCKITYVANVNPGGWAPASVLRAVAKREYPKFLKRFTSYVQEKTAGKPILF
Assay: Microscale thermophoresis (MST) binding assay
Settings: for Kd: fluorescently labeled START domain 50 nM
Procedure: 1.2 Expression and purification of the START domain of human CERT
The START domain of hCERT was expressed has a His6-SUMO fusion protein [2]. The pQE-based plasmid harboring the genetic information of His6-SUMO-START was transformed into E. coli BL21(DE3) by following the standard heat shock method. Colonies were grown on carbenicillin ([…]) and 1% glucose supplemented Luria–Bertani (LB) agar plates. A single colony was used to inoculate 20 ml of pre-culture 1 % of which was then used to inoculate 500 ml of LB medium ([…] carbenicillin, 10 mM glucose, 37 °C, 160 rpm). Upon reaching OD600 = 0.8, the culture was induced with 500 μM IPTG (isopropyl-β-d-thiogalactoside) and cells were incubated for 16 h with continuous shaking at 160 rpm. The cells were harvested by centrifugation […]
For purification of the protein, the cell pellet was re-suspended in lysis buffer (25 mM Tris/HCl, pH 7.4, 270 mM Sucrose, 1% Triton X-100, 2.5 mM dithiothreitol (DTT), Protease/Phosphatase inhibitor) on ice. Cells were disrupted using an EmulsiFlex-C3 instrument (Avestin Inc.; CANADA). The lysate was cleared by centrifugation, and the supernatant was loaded onto a Ni– NTA column (Qiagen). The protein was washed with loading buffer pH 7.4 (50 mM Na2HPO4, 50 mM NaH2PO4, 150 mM NaCl, 2,5 mM DTT) containing 20 mM imidazole and eluted with elution […]
mM imidazole. Fractions containing the protein of interest according to SDS-PAGE were pooled and digested with Ubiquitin-like-protein specific protease 1 (ULP1). The by-products (His6-SUMO and ULP1) were removed in a second IMAC step, and the target protein was subjected to a final purification by gel filtration on a superdex 200 16/600 prep grade column equilibrated with loading buffer pH 7.4 (50 mM Na2HPO4, 50 mM NaH2PO4, 150 mM NaCl, 2.5 mM DTT). The monomeric form of the START domain of hCERT was collected. The final concentration of the protein was determined via UV-Visible spectrophotometry (Varian Cary 50) at 280 nm using a calculated extinction coefficient of 50420 (M-1 cm-1).
4. Microscale Thermophoresis (MST) assays
4.1 Labeling of the START domain with a fluorophore dye
In order to perform MST assays, the START domain was coupled with a commercially available fluorophore dye (NT647 (NanoTemper Technologies, Munich, Germany)) following standard procedures provided in the manufacturer's protocol. Briefly, 10 µM of the START domain was labeled with 30 µM of the fluorophore in NHS-LB buffer kept in the dark for 30min. Any excess of the dye was removed via size exclusion chromatography on a Sephadex G25 column (GE Healthcare). The concentration of the labeled protein was determined by UV-VIS spectrophotometry at 280 nm (Varian Cary 50).
4.2 Preparation of the dilution series and MST assay
Dilution series of small-molecule ligands were prepared from stock solutions in DMSO. In case of 6B11 and 17C9, ligands were then diluted into MST buffer (50 mM Na-phosphate, 150 mM NaCl, 2.5 mM DTT, 0.05% Tween-20) to a concentration 2-fold higher than the maximum concentration used in the assay. The concentration of DMSO was kept constant in all dilutions. 16 dilutions of the ligands were prepared in micro reaction tubes by successive 1:1 dilutions with […]
solubility problems. To this end, first, a dilution series in pure DMSO was generated. The individual dilutions were then further diluted 20-fold with MST buffer to a ligand concentration 2-fold higher than its final concentration. As a final step, 10 μL of the fluorescently labeled START domain was added to all reaction tubes containing 10 μL of ligand solution. The final concentration of START domain was 50 nM. After mixing, 2-3 μL of the reaction mixture were filled into standard capillaries (Nanotemper Technologies).
MST measurements were performed with a Monolith NT.115 instrument (Nanotemper Technologies). All ligands were measured as triplicates. 40% MST excitation power was set and, depending on the labeled protein concentration used in the assay, between 5% to 20% of LED […]

Row | SMILES | Kd (read-out: KD) | also measured
1 | CCCC(=O)OCOC(=O)C1=C(C)NC(C)=C(C(=O)OC)C1c1cccc(Cl)c1Cl (stereo not drawn) [6B11, Clevidipine butyrate] | ~5 µM and 2.32 µM | 
2 | O=C(NC1CCN(CCCCC2(C(=O)NCC(F)(F)F)c3ccccc3-c3ccccc32)CC1)c1ccccc1-c1ccc(C(F)(F)F)cc1 [8E8, lomitapide] | ~5 µM and 6.77 µM | 
3 | CC1=NN(c2ccc(C)c(C)c2)C(=O)/C1=N\Nc1cccc(-c2cccc(C(=O)O)c2)c1O [17C9, Eltrombopag] |  | binding confirmed by MST (labeled START domain): confirmed binding for all compounds except 17C9
4 | Cc1cc(C2=NOC(c3cc(Cl)cc(Cl)c3)(C(F)(F)F)C2)ccc1C(=O)NCC(=O)NCC(F)(F)F (stereo not drawn) [20D5, Fluralaner] |  | Kd (KD): ~150 µM and 153 µM
5 | CCCCCCCCCCCC(=O)NC(CO)CC(O)c1ccccc1 (stereo not drawn) [HPA-12, N-(3Hydroxy-1-hydroxymethyl-3-phenylpropyl)-dodecamide] | 0.0415 µM | Kd (listed as HPA‐12, read-out: KD): ~0.04 µM
